The source of these data is patent US20140120075A1, “Nanozyme Compositions and Methods of Synthesis and Use Thereof” (Board of Regents of the University of Nebraska, priority 2011, published 2014).

Assay [1] concerns the target Catalase (from bovine liver), native (nC) (Bos taurus, UniProt P00432). The conditions noted are these: 50 mM phosphate buffer pH 7.4. On the procedure:
(§1) SOD1 (from bovine erythrocytes), hydrogen peroxide (H2O2), 2,3,5-triphenyltetrazolium chloride (TTC) and copper standards for Inductively Coupled Plasma Mass Spectroscopy (ICP-MS)—TraceCERT®, 1000 mg/L Cu in nitric acid) were from Sigma-Aldrich (St. Louis, Mo.). Catalase (from bovine liver) was from Calbiochem (Gibbstown, N.J.). PEG-pLL50 was from Alamanda Polymers™ (Huntsville, Ala.). […] Cross-linkers 3,3′-dithiobis(sulfosuccinimidylpropionate) (DTSSP) and bis(sulfosuccinimidyl)suberate (BS^3) were from Thermo Fisher Scientific (Rockford, Ill.). NAP™ desalting columns and HiPrep 16/60 Sephacryl S-400 HR column were from GE Healthcare (Piscataway, N.J.). Criterion Tris-HCl gels and Precision Plus Protein™ All Blue Standards were from Bio-Rad (Hercules, Calif.). SYPRO® Ruby protein gel stain and cell culture reagents were purchased from Invitrogen (Carlsbad, Calif.). CellTiter 96® AQueous One Solution Cell Proliferation Assay (MTS) was from Promega (Madison, Wis.). LumiMax Superoxide Anion Detection Kit was from Agilent Technologies, Inc. (Santa Clara, Calif.). All other reagents and supplies were from Fisher Scientific (Pittsburgh, Pa.) unless noted otherwise.

Assay [2] deals with Catalase (from bovine liver), DTSSP cross-linked cl-nanozyme with PEG-pLL50, non-purified (C2) (Bos taurus, UniProt P00432). As for the experimental part: as §1
Sequence of Catalase (from bovine liver), DTSSP cross-linked cl-nanozyme with PEG-pLL50, non-purified (C2) (P00432 whole entry): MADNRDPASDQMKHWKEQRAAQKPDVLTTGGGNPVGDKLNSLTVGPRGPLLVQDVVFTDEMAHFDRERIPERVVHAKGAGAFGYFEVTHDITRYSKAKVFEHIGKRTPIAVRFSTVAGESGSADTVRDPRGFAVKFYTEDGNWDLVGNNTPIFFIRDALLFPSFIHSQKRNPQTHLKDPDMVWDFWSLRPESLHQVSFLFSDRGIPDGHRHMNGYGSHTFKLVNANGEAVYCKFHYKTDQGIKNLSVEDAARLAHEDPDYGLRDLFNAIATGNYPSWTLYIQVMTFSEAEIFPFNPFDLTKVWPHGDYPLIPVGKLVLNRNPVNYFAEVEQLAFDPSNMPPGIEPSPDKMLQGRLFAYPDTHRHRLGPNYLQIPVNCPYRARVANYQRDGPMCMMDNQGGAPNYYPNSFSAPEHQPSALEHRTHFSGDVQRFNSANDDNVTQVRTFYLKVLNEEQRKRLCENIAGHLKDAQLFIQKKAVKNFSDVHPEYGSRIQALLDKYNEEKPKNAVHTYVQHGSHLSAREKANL
(§2) Enzyme and polymer stock solutions were prepared in 10 mM HEPES (pH 7.4) and 10 mM HEPES-buffered saline (HBS; pH 7.4) for SOD1 and catalase, respectively. Non-cross-linked BICs (Z+/−=2) were prepared as described (Klyachko et al. (2012) Nanomed. Nanotechnol. Biol. Med., 8:119-129). Targeted degree of cross-linking was defined as the molar ratio between cross-linker (DTSSP/BS^3) and pLL amines. Precalculated amount of the respective cross-linker was dissolved in the reaction buffer (HEPES/HBS), quickly added to BICs, and the reaction mixture was briefly vortexed and incubated for 2 hours on ice. Unreacted crosslinker was desalted using NAP™ columns following manufacturer's instructions. Cl-Nanozymes were purified using size exclusion chromatography (SEC) (small/intermediate scale) or centrifugal filtration (large scale). SEC was carried out using an ÄKTA™ Fast Protein Liquid Chromatography (FPLC) (Amersham Biosciences, Piscataway, N.J.) system. DTSSP cl-nanozymes were lyophilized overnight, reconstituted in deionized water (DW), loaded onto a HiPrep 16/60 Sephacryl™ S-400 HR column and eluted using 10 mM HBS (pH 7.4) at a flow rate of 0.5 mL/minute. Prior to each experiment, the column was pre-conditioned with free block copolymer (PEG-pLL50) to minimize non-specific adsorption of the cl-nanozymes (Boeckle et al. (2004) J. Gene Med., 6:1102-1111). Fractions spanning each distinct peak were pooled, concentrated using Amicon® Ultra-4 Centrifugal Filter Units with a molecular weight cutoff (MWCO) of 3000 Da and desalted using NAP™ columns as needed. Protein concentration was determined using Micro BCA™ Protein Assay Kit. In large-scale preparations, clnanozymes were purified by centrifugal filtration using Macrosep™ Centrifugal Device (Pall Life Sciences, Ann Arbor, Mich.) with a MWCO of either 100 kDa (for SOD1) or 1000 kDa (for catalase). Briefly, unreacted cross-linker in cross-linked BICs was desalted using NAP™ columns and eluate was collected in 10 mM HEPES containing 0.3 M NaCl (pH 7.4). Samples were loaded onto the centrifugal device and concentrated to 10% original volume by centrifuging at 4500 RPM. Two rounds of purification were done in 10 mM HEPES buffer containing 0.3 M NaCl (pH 7.4) and the third round was done in 10 mM HEPES buffer (pH 7.4). […]

The target of assay [3] is Catalase (from bovine liver), DTSSP cross-linked cl-nanozyme with PEG-pLL50, purified (C2p) (Bos taurus, UniProt P00432). On the procedure: as §1, §2
Sequence of Catalase (from bovine liver), DTSSP cross-linked cl-nanozyme with PEG-pLL50, purified (C2p) (P00432 whole entry): as above

Structures are written as SMILES.

Sequence of Catalase (from bovine liver), native (nC) (P00432 whole entry): as above

`OO` [H2O2, hydrogen peroxide]: the Kcat/Km in assay [1] came to 1.5e+07 M⁻¹ s⁻¹; in assay [2] (50 mM phosphate buffer pH 7.4, C2), 1.66e+07 M⁻¹ s⁻¹; in assay [3] (50 mM phosphate buffer pH 7.4, C2p), 7.75e+06 M⁻¹ s⁻¹. For the same compound, the “increase in Km value” in assay [2] (non-purified cl-nanozyme (C2) compared to native catalase (nC)) is “ca. 1.8 fold”. In assay [3] (purified cl-nanozyme (C2p) compared to native enzyme (nC)), the “catalytic efficiency (kcat/Km), per cent lower than nC” value was “ca. 48%”. Further, the “catalytic efficiency (kcat/Km), per cent lower than C2” value in assay [3] (purified cl-nanozyme (C2p) compared to non-purified (C2)) is around 53%.
